In ChEMBL document CHEMBL3885861, “Open TG-GATES”:

Species on record: Rattus norvegicus
Test: Open TG-GATES - Regimen: Daily Repeat
Format: toxicity, organism-based, Sprague-Dawley
Design: regimen Daily Repeat, gender Male, age 6 weeks
Conditions: in vivo, po, route gavage; for Eos / Hb / Ht / Lym / MCH / MCHC / MCV / Mono / Neu / Plat / RBC / Ret / WBC / APTT / Bas / PT: tissue Blood; for KIDNEY_L / KIDNEY_R / KIDNEY_TOTAL: tissue Kidney; for LIVER: tissue Liver; for ALT / AST / BUN / CRE / Ca / DBIL / GLC / IP / K / LDH / Na / PL / RALB / TBIL / TC / TG / TP / gamma-GTP / ALP: tissue Plasma
[1] = 300 mg/kg, 72 h, dose level Middle, time 3 day
[2] = 300 mg/kg, […], dose level Middle, time 7 day
[3] = 300 mg/kg, […], dose level Middle, time 14 day
[4] = 300 mg/kg, […], dose level Middle, time 28 day
[5] = 1000 mg/kg, 72 h, dose level High, time 3 day
[6] = 1000 mg/kg, […], dose level High, time 7 day
[7] = 1000 mg/kg, […], dose level High, time 14 day
[8] = 1000 mg/kg, […], dose level High, time 28 day

C[C@H](CS)C(=O)N1CCC[C@H]1C(=O)O [CAPTOPRIL]
Eos [1]: 1.2%
Hb [1]: 13.3 g/dL
Ht [1]: 40.2%
Lym [1]: 79.4%
MCH [1]: 21.4 pg
MCHC [1]: 33.1%
MCV [1]: 64.5 fL
Mono [1]: 4.2%
Neu [1]: 15.2%
Plat [1]: 111.4 x10_4/uL
RBC [1]: 623.2 x10_4/ul
Ret [1]: 7.7%
WBC [1]: 92.7 x10_2/uL
KIDNEY_L [1]: 1.1 g
KIDNEY_R [1]: 1.1 g
KIDNEY_TOTAL [1]: 2.2 g
LIVER [1]: 12.3 g
ALT [1]: 40.6 IU/L
AST [1]: 61 IU/L
BUN [1]: 17.8 mg/dL
CRE [1]: 0.5 mg/dL
Ca [1]: 11.5 mg/dL
DBIL [1]: 0.022 mg/dL
GLC [1]: 195.4 mg/dL
IP [1]: 8.8 mg/dL
K [1]: 5.1 meq/L
LDH [1]: 89 IU/L
Na [1]: 136 meq/L
PL [1]: 143.4 mg/dL
RALB [1]: 4.2 g/dL
TBIL [1]: 0.4 mg/dL
TC [1]: 76 mg/dL
TG [1]: 73.8 mg/dL
TP [1]: 6.1 g/dL
gamma-GTP [1]: 0.8 IU/L
TERMINAL_BW [2]: 259.5 g
TERMINAL_BW [3]: 288.5 g
TERMINAL_BW [4]: 322 g
APTT [2]: 16.4 s
Bas [2]: 0%
Eos [2]: 1.2%
Hb [2]: 13.3 g/dL
Ht [2]: 39.7%
Lym [2]: 85.2%
MCH [2]: 21.2 pg
MCHC [2]: 33.4%
MCV [2]: 63.6 fL
Mono [2]: 4.6%
Neu [2]: 9.2%
Plat [2]: 127.2 x10_4/uL
RBC [2]: 625.8 x10_4/ul
Ret [2]: 4.7%
WBC [2]: 127.6 x10_2/uL
APTT [3]: 16.6 s
Bas [3]: 0%
Eos [3]: 1%
Hb [3]: 13 g/dL
Ht [3]: 38.6%
Lym [3]: 83.2%
MCH [3]: 20.5 pg
MCHC [3]: 33.7%
MCV [3]: 60.7 fL
Mono [3]: 4%
Neu [3]: 11.4%
PT [3]: 11.7 s
Plat [3]: 128.4 x10_4/uL
RBC [3]: 636.4 x10_4/ul
Ret [3]: 4.4%
WBC [3]: 183.2 x10_2/uL
APTT [4]: 15.5 s
Bas [4]: 0%
Eos [4]: 1%
Hb [4]: 14 g/dL
Ht [4]: 41.6%
Lym [4]: 82.2%
MCH [4]: 19.3 pg
MCHC [4]: 33.7%
MCV [4]: 57.4 fL
Mono [4]: 3.6%
Neu [4]: 13.6%
PT [4]: 11.9 s
Plat [4]: 112.2 x10_4/uL
RBC [4]: 724.6 x10_4/ul
Ret [4]: 2.9%
WBC [4]: 165.2 x10_2/uL
KIDNEY_L [2]: 1.2 g
KIDNEY_R [2]: 1.2 g
KIDNEY_TOTAL [2]: 2.3 g
KIDNEY_L [3]: 1.2 g
KIDNEY_R [3]: 1.3 g
KIDNEY_TOTAL [3]: 2.5 g
KIDNEY_L [4]: 1.3 g
KIDNEY_R [4]: 1.4 g
KIDNEY_TOTAL [4]: 2.7 g
LIVER [2]: 11.7 g
LIVER [3]: 12.4 g
LIVER [4]: 12.4 g
ALT [2]: 32.8 IU/L
AST [2]: 63.2 IU/L
BUN [2]: 20.6 mg/dL
CRE [2]: 0.6 mg/dL
Ca [2]: 11 mg/dL
DBIL [2]: 0.006 mg/dL
GLC [2]: 192 mg/dL
IP [2]: 8 mg/dL
K [2]: 4.8 meq/L
LDH [2]: 109.6 IU/L
Na [2]: 138.2 meq/L
PL [2]: 132 mg/dL
RALB [2]: 3.8 g/dL
TBIL [2]: 0.3 mg/dL
TC [2]: 72.8 mg/dL
TG [2]: 73.4 mg/dL
TP [2]: 5.8 g/dL
gamma-GTP [2]: 2.2 IU/L
ALP [3]: 824.2 IU/L
ALT [3]: 40.2 IU/L
AST [3]: 66.6 IU/L
BUN [3]: 24.4 mg/dL
CRE [3]: 0.6 mg/dL
DBIL [3]: 0.012 mg/dL
GLC [3]: 203.6 mg/dL
IP [3]: 7.8 mg/dL
K [3]: 4.6 meq/L
LDH [3]: 86.6 IU/L
Na [3]: 135.2 meq/L
PL [3]: 151 mg/dL
RALB [3]: 3.8 g/dL
TBIL [3]: 0.3 mg/dL
TC [3]: 81.4 mg/dL
TG [3]: 67 mg/dL
TP [3]: 5.9 g/dL
gamma-GTP [3]: 1.4 IU/L
ALP [4]: 617.4 IU/L
ALT [4]: 35.4 IU/L
AST [4]: 65.8 IU/L
BUN [4]: 30.8 mg/dL
CRE [4]: 0.6 mg/dL
DBIL [4]: 0.024 mg/dL
GLC [4]: 191.2 mg/dL
IP [4]: 7.4 mg/dL
K [4]: 4.6 meq/L
Na [4]: 136.8 meq/L
PL [4]: 156.6 mg/dL
RALB [4]: 4 g/dL
TBIL [4]: 0.4 mg/dL
TC [4]: 84.8 mg/dL
TG [4]: 79 mg/dL
TP [4]: 6.1 g/dL
gamma-GTP [4]: 0.4 IU/L
TERMINAL_BW [5]: 233.8 g
APTT [5]: 16.1 s
Bas [5]: 0%
Eos [5]: 1.2%
Hb [5]: 13.3 g/dL
Ht [5]: 39.9%
Lym [5]: 80.6%
MCH [5]: 21.3 pg
MCHC [5]: 33.2%
MCV [5]: 64 fL
Mono [5]: 5.2%
Neu [5]: 13.4%
PT [5]: 11.1 s
Plat [5]: 122.3 x10_4/uL
RBC [5]: 623.8 x10_4/ul
Ret [5]: 6.2%
KIDNEY_L [5]: 1.1 g
KIDNEY_R [5]: 1.1 g
KIDNEY_TOTAL [5]: 2.2 g
LIVER [5]: 11 g
ALP [5]: 971.8 IU/L
ALT [5]: 40.6 IU/L
AST [5]: 63 IU/L
BUN [5]: 22.6 mg/dL
CRE [5]: 0.5 mg/dL
Ca [5]: 11.2 mg/dL
DBIL [5]: 0.016 mg/dL
GLC [5]: 193.4 mg/dL
IP [5]: 8.2 mg/dL
K [5]: 5 meq/L
LDH [5]: 90.4 IU/L
Na [5]: 135.2 meq/L
PL [5]: 148.8 mg/dL
RALB [5]: 3.9 g/dL
TBIL [5]: 0.4 mg/dL
TC [5]: 82.4 mg/dL
TG [5]: 93.4 mg/dL
TP [5]: 5.8 g/dL
gamma-GTP [5]: 1.4 IU/L
TERMINAL_BW [6]: 249.2 g
TERMINAL_BW [7]: 310.3 g
TERMINAL_BW [8]: 359.7 g
APTT [6]: 16.3 s
Bas [6]: 0%
Eos [6]: 1.2%
Hb [6]: 12.7 g/dL
Ht [6]: 37.9%
Lym [6]: 82.4%
MCH [6]: 21.3 pg
MCHC [6]: 33.5%
MCV [6]: 63.6 fL
Mono [6]: 4.6%
Neu [6]: 11.8%
Plat [6]: 123.8 x10_4/uL
RBC [6]: 595.6 x10_4/ul
Ret [6]: 4%
WBC [6]: 141 x10_2/uL
APTT [7]: 16.7 s
Bas [7]: 0%
Eos [7]: 1.2%
Hb [7]: 12.7 g/dL
Ht [7]: 37.6%
Lym [7]: 81.8%
MCH [7]: 20.6 pg
MCHC [7]: 33.6%
MCV [7]: 61.4 fL
Mono [7]: 4.6%
Neu [7]: 12.4%
PT [7]: 11.5 s
Plat [7]: 122.1 x10_4/uL
RBC [7]: 614 x10_4/ul
Ret [7]: 3.1%
WBC [7]: 160.2 x10_2/uL
APTT [8]: 16.4 s
Bas [8]: 0%
Eos [8]: 1.2%
Hb [8]: 13.4 g/dL
Ht [8]: 40.3%
Lym [8]: 90.2%
MCH [8]: 20 pg
MCHC [8]: 33.2%
MCV [8]: 60.1 fL
Mono [8]: 2.8%
Neu [8]: 6%
PT [8]: 11.9 s
Plat [8]: 96.2 x10_4/uL
RBC [8]: 671.8 x10_4/ul
Ret [8]: 3.7%
WBC [8]: 236.5 x10_2/uL
KIDNEY_L [6]: 1.2 g
KIDNEY_R [6]: 1.3 g
KIDNEY_TOTAL [6]: 2.5 g
KIDNEY_L [7]: 1.3 g
KIDNEY_R [7]: 1.4 g
KIDNEY_TOTAL [7]: 2.7 g
KIDNEY_L [8]: 1.5 g
KIDNEY_R [8]: 1.6 g
KIDNEY_TOTAL [8]: 3.1 g
LIVER [7]: 13.5 g
LIVER [8]: 15.1 g
ALP [6]: 755.6 IU/L
ALT [6]: 32.2 IU/L
AST [6]: 53.8 IU/L
BUN [6]: 46.4 mg/dL
CRE [6]: 0.6 mg/dL
DBIL [6]: 0.012 mg/dL
GLC [6]: 192.8 mg/dL
IP [6]: 7.7 mg/dL
K [6]: 5.2 meq/L
LDH [6]: 78.6 IU/L
Na [6]: 136.8 meq/L
PL [6]: 141.4 mg/dL
RALB [6]: 3.5 g/dL
TBIL [6]: 0.4 mg/dL
TC [6]: 88.2 mg/dL
TG [6]: 52.6 mg/dL
TP [6]: 5.6 g/dL
gamma-GTP [6]: 2 IU/L
ALP [7]: 859.4 IU/L
ALT [7]: 35.2 IU/L
AST [7]: 58.8 IU/L
BUN [7]: 38.8 mg/dL
CRE [7]: 0.6 mg/dL
DBIL [7]: 0.008 mg/dL
GLC [7]: 191.8 mg/dL
IP [7]: 7.8 mg/dL
K [7]: 5 meq/L
LDH [7]: 78.2 IU/L
Na [7]: 133.8 meq/L
PL [7]: 151.8 mg/dL
RALB [7]: 3.7 g/dL
TBIL [7]: 0.4 mg/dL
TC [7]: 80.6 mg/dL
TG [7]: 85.6 mg/dL
TP [7]: 5.7 g/dL
gamma-GTP [7]: 1.2 IU/L
ALP [8]: 768 IU/L
ALT [8]: 45 IU/L
AST [8]: 71.5 IU/L
BUN [8]: 32 mg/dL
CRE [8]: 0.6 mg/dL
DBIL [8]: 0.015 mg/dL
GLC [8]: 207 mg/dL
IP [8]: 7.7 mg/dL
K [8]: 4.6 meq/L
LDH [8]: 110.2 IU/L
Na [8]: 135.8 meq/L
PL [8]: 127.8 mg/dL
RALB [8]: 3.6 g/dL
TBIL [8]: 0.5 mg/dL
TC [8]: 69 mg/dL
TG [8]: 72.8 mg/dL
TP [8]: 5.7 g/dL
gamma-GTP [8]: 0.8 IU/L
